According to US10285979B2, “Breast cancer therapeutic agent containing 5′-hydroxy-5-nitro-indirubin-3′-oxime as active ingredient” (ANYGEN CO., LTD., priority 2016, dated 2019):
Read-outs that look alike come from different tables or passages of the source.

Legend:
cancer cell = conditions: DAPI staining
From the text: Further, we have examined the apoptotic body stained with DAPI using a fluorescence microscope to investigate the induction of apoptosis by AGM-130.

[1] = system: LDH (Lactate dehydrogenase)
From the text: Further, we have analyzed the secretion of LDH (Lactate dehydrogenase) enzyme to media as a representative necrosis biomarker.

[2] = system: ER positive breast cancer cell lines; conditions: 3 types of ER positive breast cancer cell lines
[3] = system: Her2 positive breast cancer cell lines; conditions: 4 types of Her2 positive breast cancer cell lines
[4] = system: transplanted A549 cell tumor; conditions: in vivo; cited from earlier work
[5] = system: MDA-MB-231 triple negative breast cancer cells
From the text: After implanting MDA-MB-231 triple negative breast cancer cells to the nude mouse, the tumor has been grown to the 200 mm^3 volume. […] The tumor growth has been observed for 27 days.
The tumor volume and shape in the nude mouse have been observed for 27 days.

[6] = Method: Chemical name (IUPAC) of AGM-130 is (2′Z 3′E)-5′-hydroxy-5-nitro indirubin oxime. […] For the practical formulation of injectable aqueous solution, AGM-130 in PEG300 solution is diluted with 0.1 N Na2CO3 in saline solution to 70% aqueous solution with final concentration of 3.75 mg/mL.
[7] = system: MDA-MB-231 triple negative breast cancer cells; remark: listed apart in the source
From the text: After implanting MDA-MB-231 triple negative breast cancer cells to the nude mouse, the tumor has been grown to the 200 mm^3 volume.
(§1) The tumor volume and shape in the nude mouse have been observed for 24 days.

[8] = system: HCT-116 colorectal cancer cells; conditions: 10 mg/kg intraperitoneally every other day
Method: The tumor has been grown after injecting HCT-116 colorectal cancer cells (10×10^6 cells/0.1 ml of non-serum matrigel medium) to the nude mouse.
as §1

[9] = system: Imatinib-resistant K562 cells; conditions: in vitro and in vivo systems; cited from earlier work

SMILES: O=C1Nc2ccc([N+](=O)[O-])cc2C1=C1Nc2ccc(O)cc2C1=NO [AGM-130, (2′Z 3′E)-5′-hydroxy-5-nitro indirubin oxime]
- induction of apoptosis (cancer cell): mitochondria-dependent apoptosis
- apoptosis and necrosis (LDH secretion) [1]: apoptosis and necrosis have been induced at the same time
- IC50 [2]: < 1000 nM
- IC50 [3]: > 3000 nM
- tumor growth [4]: dose-dependently suppresses
- tumor volume reduction compared to control group ([5]; 10 mg/kg intraperitoneally): about 40%
- volume of tumor, Mean ± S.E. ([5]; 10 mg/kg intraperitoneally twice a week, day 0): 268.0 ± 6.1
- volume of tumor, Mean ± S.E. ([5]; 10 mg/kg intraperitoneally twice a week, day 3): 369.7 ± 5.0
- volume of tumor, Mean ± S.E. ([5]; 10 mg/kg intraperitoneally twice a week, day 6): 474.3 ± 6.6
- volume of tumor, Mean ± S.E. ([5]; 10 mg/kg intraperitoneally twice a week, day 9): 634.9 ± 36.2
- volume of tumor, Mean ± S.E. ([5]; 10 mg/kg intraperitoneally twice a week, day 12): 813.5 ± 29.0
- volume of tumor, Mean ± S.E. ([5]; 10 mg/kg intraperitoneally twice a week, day 15): 985.6 ± 44.8
- volume of tumor, Mean ± S.E. ([5]; 10 mg/kg intraperitoneally twice a week, day 18): 1095.7 ± 54.2
- volume of tumor, Mean ± S.E. ([5]; 10 mg/kg intraperitoneally twice a week, day 21): 1119.8 ± 57.7
- volume of tumor, Mean ± S.E. ([5]; 10 mg/kg intraperitoneally twice a week, day 24): 1242.1 ± 76.0
- volume of tumor, Mean ± S.E. ([5]; 10 mg/kg intraperitoneally twice a week, day 27): 1484.9 ± 86.8
- tumor volume reduction compared to control group ([5]; 20 mg/kg intraperitoneally): about 64%
- volume of tumor, Mean ± S.E. ([5]; 20 mg/kg intraperitoneally twice a week, day 0): 248.0 ± 11.0
- volume of tumor, Mean ± S.E. ([5]; 20 mg/kg intraperitoneally twice a week, day 3): 295.4 ± 22.0
- volume of tumor, Mean ± S.E. ([5]; 20 mg/kg intraperitoneally twice a week, day 6): 364.9 ± 23.5
- volume of tumor, Mean ± S.E. ([5]; 20 mg/kg intraperitoneally twice a week, day 9): 457.4 ± 47.3
- volume of tumor, Mean ± S.E. ([5]; 20 mg/kg intraperitoneally twice a week, day 12): 559.5 ± 56.2
- volume of tumor, Mean ± S.E. ([5]; 20 mg/kg intraperitoneally twice a week, day 15): 623.4 ± 51.5
- volume of tumor, Mean ± S.E. ([5]; 20 mg/kg intraperitoneally twice a week, day 18): 668.5 ± 56.8
- volume of tumor, Mean ± S.E. ([5]; 20 mg/kg intraperitoneally twice a week, day 21): 767.2 ± 106.7
- volume of tumor, Mean ± S.E. ([5]; 20 mg/kg intraperitoneally twice a week, day 24): 833.1 ± 139.7
- volume of tumor, Mean ± S.E. ([5]; 20 mg/kg intraperitoneally twice a week, day 27): 894.2 ± 151.6
- tumor volume reduction compared to control group ([5]; 40 mg/kg intraperitoneally): about 70%
- volume of tumor, Mean ± S.E. ([5]; 40 mg/kg intraperitoneally twice a week, day 0): 253.1 ± 8.5
- volume of tumor, Mean ± S.E. ([5]; 40 mg/kg intraperitoneally twice a week, day 3): 313.3 ± 9.7
- volume of tumor, Mean ± S.E. ([5]; 40 mg/kg intraperitoneally twice a week, day 6): 327.5 ± 19.1
- volume of tumor, Mean ± S.E. ([5]; 40 mg/kg intraperitoneally twice a week, day 9): 372.4 ± 8.3
- volume of tumor, Mean ± S.E. ([5]; 40 mg/kg intraperitoneally twice a week, day 12): 444.8 ± 7.3
- volume of tumor, Mean ± S.E. ([5]; 40 mg/kg intraperitoneally twice a week, day 15): 481.9 ± 39.1
- volume of tumor, Mean ± S.E. ([5]; 40 mg/kg intraperitoneally twice a week, day 18): 532.7 ± 27.6
- volume of tumor, Mean ± S.E. ([5]; 40 mg/kg intraperitoneally twice a week, day 21): 620.1 ± 45.2
- volume of tumor, Mean ± S.E. ([5]; 40 mg/kg intraperitoneally twice a week, day 24): 686.2 ± 85.6
- volume of tumor, Mean ± S.E. ([5]; 40 mg/kg intraperitoneally twice a week, day 27): 730.8 ± 73.9
- tumor volume reduction compared to control group ([5]; control group paclitaxel (5 mg/kg)): about 14%
- solubility ([6]; in DMF and DMSO): soluble
- solubility ([6]; in ethanol and acetone): very difficult to dissolve
- solubility ([6]; in water): practically insoluble
- tumor volume reduction compared to control group ([7]; 3 mg/kg intravenously): about 31%
- volume of tumor ([7]; 3 mg/kg intravenously once a week, day 0): 341.5 ± 14.4
- volume of tumor ([7]; 3 mg/kg intravenously once a week, day 3): 474.6 ± 26.4
- volume of tumor ([7]; 3 mg/kg intravenously once a week, day 6): 602.5 ± 44.1
- volume of tumor ([7]; 3 mg/kg intravenously once a week, day 9): 693.1 ± 61.0
- volume of tumor ([7]; 3 mg/kg intravenously once a week, day 12): 838.0 ± 79.9
- volume of tumor ([7]; 3 mg/kg intravenously once a week, day 15): 996.9 ± 79.9
- volume of tumor ([7]; 3 mg/kg intravenously once a week, day 18): 1217.5 ± 81.8
- volume of tumor ([7]; 3 mg/kg intravenously once a week, day 21): 1398.0 ± 78.1
- volume of tumor ([7]; 3 mg/kg intravenously once a week, day 24): 1871.4 ± 175.5
- tumor volume reduction compared to control group ([7]; 7 mg/kg intravenously): about 47%
- volume of tumor ([7]; 7 mg/kg intravenously once a week, day 0): 355.4 ± 10.7
- volume of tumor ([7]; 7 mg/kg intravenously once a week, day 3): 451.9 ± 10.2
- volume of tumor ([7]; 7 mg/kg intravenously once a week, day 6): 543.4 ± 10.9
- volume of tumor ([7]; 7 mg/kg intravenously once a week, day 9): 615.5 ± 19.0
- volume of tumor ([7]; 7 mg/kg intravenously once a week, day 12): 651.0 ± 47.1
- volume of tumor ([7]; 7 mg/kg intravenously once a week, day 15): 677.9 ± 46.7
- volume of tumor ([7]; 7 mg/kg intravenously once a week, day 18): 899.6 ± 59.6
- volume of tumor ([7]; 7 mg/kg intravenously once a week, day 21): 1108.9 ± 88.1
- volume of tumor ([7]; 7 mg/kg intravenously once a week, day 24): 1436.1 ± 84.8
- tumor volume reduction compared to control group ([7]; 14 mg/kg intravenously): about 61%
- volume of tumor ([7]; 14 mg/kg intravenously once a week, day 0): 342.1 ± 20.7
- volume of tumor ([7]; 14 mg/kg intravenously once a week, day 3): 408.5 ± 10.3
- volume of tumor ([7]; 14 mg/kg intravenously once a week, day 6): 470.8 ± 20.4
- volume of tumor ([7]; 14 mg/kg intravenously once a week, day 9): 525.4 ± 35.6
- volume of tumor ([7]; 14 mg/kg intravenously once a week, day 12): 535.3 ± 39.0
- volume of tumor ([7]; 14 mg/kg intravenously once a week, day 15): 581.5 ± 44.8
- volume of tumor ([7]; 14 mg/kg intravenously once a week, day 18): 696.1 ± 54.6
- volume of tumor ([7]; 14 mg/kg intravenously once a week, day 21): 831.0 ± 75.1
- volume of tumor ([7]; 14 mg/kg intravenously once a week, day 24): 1064.3 ± 39.8
- weight of tumor ([7]; intravenously, FIG. 6): dose-dependently reduced
- volume of tumor ([8]; FIG. 12): cannot be reduced significantly
- volume of tumor ([8]; FIG. 13): cannot be reduced significantly
- viability of cells [9]: efficiently decreases the viability
